The source of these data is patent US10204708B2, “System and method for deriving parameters for homeostatic feedback control of an individual” (Agency for Science, Technology and Research, priority 2012, dated 2019).

Common to all, as to format: in vivo, human
Experiment [1] in a line: thyroid function test, free thyroxin [FT4] level of patient under treatment. The source says: (§1) The method 10 is particularly suited to derive the hypothalamus pituitary (HP) characteristic of the individual. The HP characteristic of, the individual relates the level of thyroid-stimulating hormone [TSH] level in milliunits per liter (mU/L) and the corresponding free thyroxin [FT4] level in picomoles per liter (pmol/L) in the individual. In the following description, homeostatic measurements would be understood to refer to measurements of the level of [TSH] and corresponding [FT4] in an individual.
(§2) Each homeostatic measurement comprises a value of a [TSH] reading and a corresponding [FT4] reading. To determine the S and φ parameters for the individual, at least two well distinguishable homeostatic, measurements (i.e. ([FT4]1, [TSH]1) and ([FT4]2, [TSH]2)) from the individual are obtained with a predetermined time gap in between each measurement. The measurements are performed on samples taken near the same time of the day by the same analytical measurement method and ideally applied by one and the same person whenever feasible to minimise errors that can compromise the accuracy of the model estimates.
(§3) Preferably, the individual measurements are performed in a fasting condition and separated by 6 weeks while under medical treatment for a hypothyroidism or hyperthyroidism state with the replacement hormone for [T4] leading to a state of clinical euthyroidism.
(§4) Any method known for measuring homeostatic parameters would be suitable, for example, various types of chromatography, immunochemistry or other methods known to accurately measure the amount of a homeostatic expression product, as long as the same measurement method is applied by one and the same person.

The nature of experiment [2]: thyroid function test, thyroid-stimulating hormone [TSH] level of patient under treatment.
From the text: as §1, §2, §3, §4

The nature of experiment [3]: clinical course of hypothyroid Graves' disease patient on L-thyroxin. As to conditions: Example 3 patient, 75 mcg L-T4 daily. The source says: They were thus started on L-thyroxin from day 456 at 25 mcg daily, and escalated to 50 mcg daily from day 715.
[4] abbreviates: Example 1 patient, day 0, Rx CMZ 20.
The mark [5] stands for this setting: Example 1 patient, day 53, Rx CMZ 10.
[6] abbreviates: Example 1 patient, day 86, Rx CMZ 30.
Setting [7] is: Example 1 patient, day 125, Rx CMZ 10.
Setting [8] is: Example 1 patient, day 210, Rx LT4 50 (mcg daily), after radioiodine-131 ablation.
The mark [9] stands for this setting: Example 1 patient, day 269, Rx LT4 50 (mcg daily).
Setting [10] is: Example 6 patient, 1 Oct. 2007, LT4 100.
The mark [11] stands for this setting: Example 6 patient, 2 May 1997, LT4 25.
[12] abbreviates: Example 6 patient, 3 May 2005, LT4 75.
Setting [13] is: Example 6 patient, 5 Oct. 2005, LT4 100.
Where [14] appears, read: Example 6 patient, 6 May 2011, LT4 100.
Setting [15] is: Example 6 patient, 10 Dec. 2010, LT4 100.
Where [16] appears, read: Example 6 patient, 12 Feb. 2007, LT4 100.
The mark [17] stands for this setting: Example 6 patient, 14 May 2007, LT4 100.
Where [18] appears, read: Example 6 patient, 16 Aug. 1999, LT4 50.
The mark [19] stands for this setting: Example 6 patient, 16 Mar. 2012, LT4 100.
[20] abbreviates: Example 6 patient, 17 Aug. 1998, LT4 50.
Setting [21] is: Example 6 patient, 19 Oct. 2006, LT4 100.
The mark [22] stands for this setting: Example 6 patient, 21 Jun. 2006, LT4 100.
[23] abbreviates: Example 6 patient, 23 Jan. 2006, LT4 100.
[24] abbreviates: Example 6 patient, 24 Apr. 2002, LT4 50.
The mark [25] stands for this setting: Example 6 patient, 26 Oct. 1999, LT4 50.
Setting [26] is: Example 6 patient, 28 Jul. 2008, LT4 100.

For the compound `CCOC(=O)n1ccn(C)c1=S` [CMZ, carbimazole], the FT4 in experiment [1] (setting [4]) was 53.3 pmol/L; in experiment [1] (setting [5]), 12.5 pmol/L; in experiment [1] (setting [6]), 31.3 pmol/L; in experiment [1] (setting [7]), 11 pmol/L. The TSH in experiment [2] (setting [4]) is less than 0.01 mU/L; in experiment [2] (setting [5]), less than 0.01 mU/L; in experiment [2] (setting [6]), 0.005 mU/L; in experiment [2] (setting [7]) it was 0.02 mU/L.

As to `N[C@@H](Cc1cc(I)c(Oc2cc(I)c(O)c(I)c2)c(I)c1)C(=O)O` [LT4, levothyroxin], the clinical outcome in experiment [3] was “euthyroidism and resolution of all their hypothyroid symptoms”. Also, the FT4 in experiment [1] (setting [8]) is reported as 5 pmol/L; in experiment [1] (setting [9]) it was 10 pmol/L; in experiment [1] (Example 4 patient, radiation-induced thyroid failure, LT4 25 mcg once daily), “about 10 pmol/L”; in experiment [1] (setting [10]), 11 pmol/L; in experiment [1] (setting [11]), 11.5 pmol/L; in experiment [1] (setting [12]), 13 pmol/L. Also, the FT4 in experiment [1] (setting [13]) was determined as 16 pmol/L; in experiment [1] (setting [14]), 17 pmol/L; in experiment [1] (setting [15]), 18 pmol/L; in experiment [1] (setting [16]), 15 pmol/L; in experiment [1] (setting [17]), 14 pmol/L; in experiment [1] (setting [18]), 12 pmol/L. Further, the FT4 was found to be 15 pmol/L in experiment [1] (setting [19]); 10.6 pmol/L in experiment [1] (setting [20]); 12 pmol/L in experiment [1] (setting [21]); 13 pmol/L in experiment [1] (setting [22]); 14 pmol/L in experiment [1] (setting [23]); 13 pmol/L in experiment [1] (setting [24]). The FT4 is given as 14 pmol/L in experiment [1] (setting [25]) and 13 pmol/L in experiment [1] (setting [26]). For the same compound, the TSH in experiment [2] (setting [8]) was 9.05 mU/L; in experiment [2] (setting [9]), 0.12 mU/L; in experiment [2] (setting [10]) it was 4.34 mU/L; in experiment [2] (setting [11]) it was 8.64 mU/L; in experiment [2] (setting [12]), 6.67 mU/L; in experiment [2] (setting [13]), 1.10 mU/L. The TSH stood at 0.99 mU/L in experiment [2] (setting [14]); 0.41 mU/L in experiment [2] (setting [15]); 2.65 mU/L in experiment [2] (setting [16]); 1.72 mU/L in experiment [2] (setting [17]); 4.96 mU/L in experiment [2] (setting [18]); 2.20 mU/L in experiment [2] (setting [19]). Moreover, the TSH in experiment [2] (setting [20]) is reported as 8.71 mU/L; in experiment [2] (setting [21]) it was 2.43 mU/L; in experiment [2] (setting [22]) it was 1.48 mU/L; in experiment [2] (setting [23]), 2.18 mU/L; in experiment [2] (setting [24]) it was 2.32 mU/L; in experiment [2] (setting [25]), 3.03 mU/L. The TSH in experiment [2] (setting [26]) worked out at 3.12 mU/L.
